9 molecules from patent US20080112899A1, “Carboxamides and Their Use” (priority 2004, published 2008) can be followed below.

This assay has as its system trained panel of 4 to 8 people. Kind of assay: Cooling intensity by isointensity method, trained panel tasting aqueous solutions versus WS 23. Type of assay: in vivo, human. Conditions: aqueous solutions tasted, compared to aqueous solution of reference WS 23 at 2 ppm. As for the experimental part: The cooling intensity of the compounds was determined by a trained panel of 4 to 8 people according to the isointensity method as described below.
Aqueous solutions of various concentrations of a chemical compound are prepared and tasted. The cooling intensity of each solution was compared to that of an aqueous solution of the reference compound at 2 ppm, namely N,2,3-trimethyl-2-isopropylbutanamde (WS 23).
For the molecule `COc1ccc(NC(=O)C(C)(C(C)C)C(C)C)c(OC)c1` [Ex. 2G], the rel. cooling intensity was 0.9.

`CC(C)C(C(=O)Nc1ccccc1C#N)C(C)C` [Ex. 2F, N-(2-Cyanophenyl)2-isopropylisovaleramide] yielded a rel. cooling intensity of 1.7.

As to `COc1ccc(NC(=O)C(C(C)C)C(C)C)cc1` [Ex. 2E, N-(4-Methoxyphenyl)2-isopropylisovaleramide], the rel. cooling intensity is listed as 1.1.

`CC(C)C(C)(C(=O)Nc1ccc2c(c1)OCO2)C(C)C` [Ex. 2H, N-Benzo[1,3]dioxol-5-yl 2-methyl-2-isopropylisovaleramide] registered a rel. cooling intensity of 0.9.

Consider `CC(C)C(C)(C(=O)Nc1ccc(CC#N)cc1)C(C)C` [Ex. 2C, N-(4-Cyanomethyl-phenyl)-2-methyl-2-isopropyl-isovaleramide], for which the rel. cooling intensity came out at 0.2.

As to `CC(C)C(C)(C(=O)Nc1ccc(C#N)cc1)C(C)C` [Ex. 2A, N-(4-Cyanophenyl)2-methyl-2-isopropylisovaleramide], the rel. cooling intensity stood at 1.5.

The molecule `COc1ccc(NC(=O)C(C)(C(C)C)C(C)C)cc1` [Ex. 2B, N-(4-Methoxyphenyl)2-methyl-2-isopropylisovaleramide] came in with a rel. cooling intensity of 1.1.

Consider `CC(C)C(C(=O)Nc1ccc(C#N)cc1)C(C)C` [Ex. 1, N-(4-cyanophenyl) 2-isopropylisovaleramide], for which the rel. cooling intensity turned out to be 1.3.

Molecule `COc1cc(CNC(=O)C(C)(C(C)C)C(C)C)ccc1O` [Ex. 2I, N-Vanillyl 2-methyl-2-isopropylisovaleramide] had a rel. cooling intensity of 0.8.
